From patent publication EP4745137A1 (Gluetacs Therapeutics (Shanghai) Co., Ltd., priority 2023, dated 2025)
Like-named read-outs stand apart in the source and are kept apart here.

Tests used:
[1] = test system: Human breast cancer cells (MDA-MB-231); assay: Tumor cell proliferation inhibition (CellTiter-Meiluncell Luminescent Cell Viability Assay), MDA-MB-231; settings: MDA-MB-231, 96 h, read-out: inhibitory activity (IC50, nM) against tumor cells proliferation, MDA-MB-231
Description: (§1) The tumor cells used herein were cultured in a cell culture medium listed in table 2 at 37°C in an incubator with 5% CO2. Prior to experimentation, all cell lines used were correctly identified by STR profiling, and tested negative for mycoplasma contamination using a mycoplasma detection kit through routine screenings.
(§2) On the following day, the test compounds of the present disclosure were subjected to serial dilution. […] Subsequently, 0.5 µL of the test compound dilution was transferred into the 96-well plate containing the cells, with each well containing 100 µL of cell culture medium. […] Into the 96-well plate, the diluted test compounds and corresponding detection reagents were added, resulting in final test compound concentrations of 500 nM and 10 nM, respectively. The experimental procedure is described below using the diluted 2 µM test compound as an example.
(§3) After the cells were treated with the compounds of the present disclosure for a specified period (the treatment durations were shown in Table 3), the cell viability assay reagent was added to the culture medium according to the kit's instructions to determine cell viability. […] All controls were treated using the same procedure as the compounds of the present disclosure. The growth inhibition curves for the compounds of the present disclosure were plotted using Prism GraphPad software, and the IC50 values were calculated therefrom.

WEE1 = target: T1, WEE1 (Homo sapiens, UniProt P30291+Q96SW2); assay: Western-blot assay of substrate protein degradation in hPBMCs, WEE1; type: cell-based; settings: 24 hours of compound treatment, compounds tested at 50 nM and 500 nM (concentration of the table not stated)
T1 construct: endogenous in cells; host or cells: hPBMCs (Milecell Biotechnologies)

[2] = target: T2, human Cereblon WT GST-tagged protein (Homo sapiens, UniProt Q96SW2); assay: CRBN-binding affinity by HTRF (CEREBLON BINDING kit)
T2 construct: purchased CISBIO 64BDCRBNPEH
T2 sequence (Q96SW2 whole entry): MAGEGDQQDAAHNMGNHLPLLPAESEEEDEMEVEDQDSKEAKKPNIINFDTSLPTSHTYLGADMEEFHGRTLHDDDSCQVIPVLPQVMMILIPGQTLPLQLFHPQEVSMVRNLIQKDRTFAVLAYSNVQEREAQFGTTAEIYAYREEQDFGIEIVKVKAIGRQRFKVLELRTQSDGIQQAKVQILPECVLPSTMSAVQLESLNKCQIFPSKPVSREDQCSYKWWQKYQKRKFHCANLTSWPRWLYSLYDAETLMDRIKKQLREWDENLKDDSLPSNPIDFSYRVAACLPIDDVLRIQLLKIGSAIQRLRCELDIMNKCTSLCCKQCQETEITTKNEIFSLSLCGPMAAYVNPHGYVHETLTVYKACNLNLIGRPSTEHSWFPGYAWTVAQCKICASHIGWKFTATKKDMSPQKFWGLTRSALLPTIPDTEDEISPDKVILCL

SR = assay: Tumor cell proliferation inhibition (CellTiter-Meiluncell Luminescent Cell Viability Assay), SR; settings: Homo sapiens, 96 h, read-out: inhibitory activity (IC50, nM) against tumor cells proliferation, SR
Description: as §1
On the following day, the test compounds of the present disclosure were subjected to serial dilution. […] Subsequently, 0.5 µL of the test compound dilution was transferred into the 96-well plate containing the cells, with each well containing 100 µL of cell culture medium. […] Into the 96-well plate, the diluted test compounds and corresponding detection reagents were added, resulting in final test compound concentrations of 500 nM and 10 nM, respectively.
as §3

Vcap = assay: Tumor cell proliferation inhibition (CellTiter-Meiluncell Luminescent Cell Viability Assay), Vcap; settings: Homo sapiens, 96 h, read-out: inhibitory activity (IC50, nM) against tumor cells proliferation, Vcap
Description: as §1, §2, §3

CK1α = target: T3, CK1α (Homo sapiens, UniProt P48729+Q96SW2); assay: Western-blot assay of substrate protein degradation in hPBMCs, CK1α; type: cell-based; settings: 24 hours of compound treatment, compounds tested at 50 nM and 500 nM (concentration of the table not stated)
T3 construct: endogenous in cells; host or cells: hPBMCs (Milecell Biotechnologies)
T3 sequence (P48729 whole entry): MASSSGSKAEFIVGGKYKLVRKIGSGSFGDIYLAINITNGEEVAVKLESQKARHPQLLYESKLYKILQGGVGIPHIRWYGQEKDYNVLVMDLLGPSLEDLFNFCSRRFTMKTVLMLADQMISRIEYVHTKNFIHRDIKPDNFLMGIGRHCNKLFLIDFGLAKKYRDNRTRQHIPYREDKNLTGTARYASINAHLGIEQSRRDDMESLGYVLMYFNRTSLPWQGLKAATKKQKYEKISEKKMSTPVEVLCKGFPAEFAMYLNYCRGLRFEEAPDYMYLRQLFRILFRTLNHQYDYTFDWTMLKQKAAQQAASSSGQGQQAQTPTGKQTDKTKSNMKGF
T3 sequence (Q96SW2 whole entry): as the sequence (Q96SW2 whole entry) above
T3 sequence (Q16531 whole entry partner): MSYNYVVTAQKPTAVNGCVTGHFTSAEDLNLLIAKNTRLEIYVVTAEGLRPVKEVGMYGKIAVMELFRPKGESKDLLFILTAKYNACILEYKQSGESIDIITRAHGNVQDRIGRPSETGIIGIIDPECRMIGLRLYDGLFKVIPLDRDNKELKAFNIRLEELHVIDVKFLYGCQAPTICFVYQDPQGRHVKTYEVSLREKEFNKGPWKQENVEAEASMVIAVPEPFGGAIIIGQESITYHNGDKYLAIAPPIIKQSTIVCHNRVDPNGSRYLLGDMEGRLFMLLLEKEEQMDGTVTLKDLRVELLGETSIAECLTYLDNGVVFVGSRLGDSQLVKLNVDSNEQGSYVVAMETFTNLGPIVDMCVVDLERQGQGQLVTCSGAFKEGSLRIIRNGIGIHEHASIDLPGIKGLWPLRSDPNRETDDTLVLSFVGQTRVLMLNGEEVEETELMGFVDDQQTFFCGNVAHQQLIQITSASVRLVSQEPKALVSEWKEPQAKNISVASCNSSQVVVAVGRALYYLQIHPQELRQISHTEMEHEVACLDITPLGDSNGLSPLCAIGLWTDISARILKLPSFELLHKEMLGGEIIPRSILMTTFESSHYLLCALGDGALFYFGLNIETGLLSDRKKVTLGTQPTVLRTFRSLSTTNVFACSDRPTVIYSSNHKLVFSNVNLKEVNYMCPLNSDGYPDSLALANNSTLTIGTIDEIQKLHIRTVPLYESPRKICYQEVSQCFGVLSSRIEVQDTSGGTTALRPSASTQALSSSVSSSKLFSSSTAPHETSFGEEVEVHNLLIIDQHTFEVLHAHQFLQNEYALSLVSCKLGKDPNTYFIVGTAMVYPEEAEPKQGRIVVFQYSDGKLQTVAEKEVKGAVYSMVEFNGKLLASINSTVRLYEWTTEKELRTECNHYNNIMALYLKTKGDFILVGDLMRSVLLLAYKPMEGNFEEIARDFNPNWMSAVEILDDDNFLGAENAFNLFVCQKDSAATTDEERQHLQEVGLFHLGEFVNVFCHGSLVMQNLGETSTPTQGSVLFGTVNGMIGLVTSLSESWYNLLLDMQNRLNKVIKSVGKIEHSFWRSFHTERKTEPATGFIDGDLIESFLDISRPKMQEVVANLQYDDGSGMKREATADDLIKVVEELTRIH

SW620 = assay: Tumor cell proliferation inhibition (CellTiter-Meiluncell Luminescent Cell Viability Assay), SW620; settings: Homo sapiens, SW-620, 96 h, read-out: inhibitory activity (IC50, nM) against tumor cells proliferation, SW620
Description: as §1, §2, §3

GSPT1 = target: T4, GSPT1 (Homo sapiens, UniProt P15170+Q96SW2); assay: Western-blot assay of substrate protein degradation in hPBMCs, GSPT1; type: cell-based; settings: 24 hours of compound treatment, compounds tested at 50 nM and 500 nM (concentration of the table not stated)
T4 construct: endogenous in cells; host or cells: hPBMCs (Milecell Biotechnologies)
T4 sequence (P15170 whole entry): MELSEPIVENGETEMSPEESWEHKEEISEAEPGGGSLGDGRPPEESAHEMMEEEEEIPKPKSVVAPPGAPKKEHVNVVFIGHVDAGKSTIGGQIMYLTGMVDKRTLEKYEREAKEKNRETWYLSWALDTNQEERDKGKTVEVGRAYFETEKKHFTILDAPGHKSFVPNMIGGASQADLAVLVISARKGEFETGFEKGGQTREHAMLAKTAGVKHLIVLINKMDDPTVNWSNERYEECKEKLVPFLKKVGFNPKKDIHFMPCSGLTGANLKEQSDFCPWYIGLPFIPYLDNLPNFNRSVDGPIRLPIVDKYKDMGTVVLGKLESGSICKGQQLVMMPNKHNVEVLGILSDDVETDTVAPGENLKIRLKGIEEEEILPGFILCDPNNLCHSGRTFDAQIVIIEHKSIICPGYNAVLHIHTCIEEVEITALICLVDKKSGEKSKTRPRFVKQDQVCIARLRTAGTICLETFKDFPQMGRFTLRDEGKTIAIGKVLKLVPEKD
T4 sequence (Q96SW2 whole entry): as the sequence (Q96SW2 whole entry) above
T4 sequence (Q16531 whole entry partner): as the sequence (Q16531 whole entry partner) above

MM.1R = assay: Tumor cell proliferation inhibition (CellTiter-Meiluncell Luminescent Cell Viability Assay), MM.1R; settings: Homo sapiens, 96 h, read-out: inhibitory activity (IC50, nM) against tumor cells proliferation, MM.1R
NCI-H1975 = assay: Tumor cell proliferation inhibition (CellTiter-Meiluncell Luminescent Cell Viability Assay), NCI-H1975; settings: Homo sapiens, NCI-H1975, 96 h, read-out: inhibitory activity (IC50, nM) against tumor cells proliferation, H1975
Description: as §1, §2, §3

IKZF2 = target: T5, IKZF2 (Homo sapiens, UniProt Q96SW2+Q9UKS7); assay: Western-blot assay of substrate protein degradation in hPBMCs, IKZF2; type: cell-based; settings: 24 hours of compound treatment, compounds tested at 50 nM and 500 nM (concentration of the table not stated)
T5 construct: endogenous in cells; host or cells: hPBMCs (Milecell Biotechnologies)
T5 sequence (Q9UKS7 whole entry): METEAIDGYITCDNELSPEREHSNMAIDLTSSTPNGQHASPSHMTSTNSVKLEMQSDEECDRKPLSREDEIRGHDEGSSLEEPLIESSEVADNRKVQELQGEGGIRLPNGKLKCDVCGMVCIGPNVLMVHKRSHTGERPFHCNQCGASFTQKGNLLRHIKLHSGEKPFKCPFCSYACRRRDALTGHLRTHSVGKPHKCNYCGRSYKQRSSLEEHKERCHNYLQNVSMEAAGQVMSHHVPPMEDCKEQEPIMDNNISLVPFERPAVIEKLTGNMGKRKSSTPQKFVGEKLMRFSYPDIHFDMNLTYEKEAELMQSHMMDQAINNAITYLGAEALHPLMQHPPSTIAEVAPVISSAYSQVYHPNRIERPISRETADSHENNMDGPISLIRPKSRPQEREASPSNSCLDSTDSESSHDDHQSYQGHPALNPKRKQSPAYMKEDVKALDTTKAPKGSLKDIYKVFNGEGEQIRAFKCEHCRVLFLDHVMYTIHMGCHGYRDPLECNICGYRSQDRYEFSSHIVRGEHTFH
T5 sequence (Q96SW2 whole entry): as the sequence (Q96SW2 whole entry) above
T5 sequence (Q16531 whole entry partner): as the sequence (Q16531 whole entry partner) above

Jurkat = assay: Tumor cell proliferation inhibition (CellTiter-Meiluncell Luminescent Cell Viability Assay), Jurkat; settings: Homo sapiens, 96 h, read-out: inhibitory activity (IC50, nM) against tumor cells proliferation, Jurkat
IKZF3 = target: T6, IKZF3 (Homo sapiens, UniProt Q96SW2+Q9UKT9); assay: Western-blot assay of substrate protein degradation in hPBMCs, IKZF3; type: cell-based; settings: 24 hours of compound treatment, compounds tested at 50 nM and 500 nM (concentration of the table not stated)
T6 construct: endogenous in cells; host or cells: hPBMCs (Milecell Biotechnologies)
T6 sequence (Q9UKT9 whole entry): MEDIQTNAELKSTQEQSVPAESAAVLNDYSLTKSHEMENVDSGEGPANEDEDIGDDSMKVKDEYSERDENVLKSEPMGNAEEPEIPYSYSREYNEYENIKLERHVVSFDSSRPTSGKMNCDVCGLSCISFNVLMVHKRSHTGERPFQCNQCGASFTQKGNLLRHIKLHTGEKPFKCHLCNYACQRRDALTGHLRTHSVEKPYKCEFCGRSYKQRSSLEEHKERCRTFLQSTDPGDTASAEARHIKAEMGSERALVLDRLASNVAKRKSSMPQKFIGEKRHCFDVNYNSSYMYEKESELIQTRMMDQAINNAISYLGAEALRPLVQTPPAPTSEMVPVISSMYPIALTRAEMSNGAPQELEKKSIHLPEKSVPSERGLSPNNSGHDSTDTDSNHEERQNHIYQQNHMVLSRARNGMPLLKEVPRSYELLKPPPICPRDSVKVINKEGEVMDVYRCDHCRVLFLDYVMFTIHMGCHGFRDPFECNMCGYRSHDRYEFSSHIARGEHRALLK
T6 sequence (Q96SW2 whole entry): as the sequence (Q96SW2 whole entry) above
T6 sequence (Q16531 whole entry partner): as the sequence (Q16531 whole entry partner) above

[3] = test system: Human acute T lymphocytic leukemia cells (Molt-4); assay: Tumor cell proliferation inhibition (CellTiter-Meiluncell Luminescent Cell Viability Assay), Molt-4; settings: MOLT-4, 96 h, read-out: inhibitory activity (IC50, nM) against tumor cells proliferation, Molt 4
MGC803 = assay: Tumor cell proliferation inhibition (CellTiter-Meiluncell Luminescent Cell Viability Assay), MGC803; settings: Homo sapiens, MGC-803, 96 h, read-out: inhibitory activity (IC50, nM) against tumor cells proliferation, MGC803
IKZF1 = target: T7, IKZF1 (Homo sapiens, UniProt Q13422+Q96SW2); assay: Western-blot assay of substrate protein degradation in hPBMCs, IKZF1; type: cell-based; settings: 24 hours of compound treatment, compounds tested at 50 nM and 500 nM (concentration of the table not stated)
T7 construct: endogenous in cells; host or cells: hPBMCs (Milecell Biotechnologies)
T7 sequence (Q13422 whole entry): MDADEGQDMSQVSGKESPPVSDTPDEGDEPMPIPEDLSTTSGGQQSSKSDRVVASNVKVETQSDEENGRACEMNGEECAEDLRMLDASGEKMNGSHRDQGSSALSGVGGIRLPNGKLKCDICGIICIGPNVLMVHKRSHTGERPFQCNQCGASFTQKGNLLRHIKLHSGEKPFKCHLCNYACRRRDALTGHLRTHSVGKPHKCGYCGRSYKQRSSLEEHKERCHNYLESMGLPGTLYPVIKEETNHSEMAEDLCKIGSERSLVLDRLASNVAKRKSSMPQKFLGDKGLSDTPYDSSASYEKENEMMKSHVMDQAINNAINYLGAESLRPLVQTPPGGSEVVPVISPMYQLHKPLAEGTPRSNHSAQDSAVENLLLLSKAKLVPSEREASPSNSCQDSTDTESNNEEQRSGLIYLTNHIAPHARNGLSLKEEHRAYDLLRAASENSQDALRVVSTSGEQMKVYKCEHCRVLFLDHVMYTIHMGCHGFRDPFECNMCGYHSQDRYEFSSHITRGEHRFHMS
T7 sequence (Q96SW2 whole entry): as the sequence (Q96SW2 whole entry) above
T7 sequence (Q16531 whole entry partner): as the sequence (Q16531 whole entry partner) above

CAL-62 = assay: Tumor cell proliferation inhibition (CellTiter-Meiluncell Luminescent Cell Viability Assay), CAL-62; settings: Homo sapiens, CAL-62, 96 h, read-out: inhibitory activity (IC50, nM) against tumor cells proliferation, CAL-62
Description: as §1, §2, §3

CCRF-CEM = assay: Tumor cell proliferation inhibition (CellTiter-Meiluncell Luminescent Cell Viability Assay), CCRF-CEM; settings: Homo sapiens, 96 h, read-out: inhibitory activity (IC50, nM) against tumor cells proliferation, CCRF-CEM
Description: as §1, §2, §3

[4] = HTRF inhibitory activity, CEREBLON BINDING kit; read-out: HTRF IC50

| Structure (SMILES) | IC50 [1] | Weel substrate protein remaining % (WEE1) | IC50 [2, 4] | IC50 (SR) | IC50 (Vcap) | CK1a substrate protein remaining % (CK1α) | IC50 (SW620) | GSPT1 substrate protein remaining % (GSPT1) | IC50 (MM.1R) | IC50 (NCI-H1975) | IKZF2 substrate protein remaining % (IKZF2) | IC50 (Jurkat) | IKZF3 substrate protein remaining % (IKZF3) | IC50 [3] | IC50 (MGC803) | IKZF 1 substrate protein remaining % (IKZF1) | IC50 (CAL-62) | IC50 (CCRF-CEM) | IC50 ([2]; read-out: HTRF IC50; HTRF inhibitory activity, CEREBLON BINDING kit) |
| --- | --- | --- | --- | --- | --- | --- | --- | --- | --- | --- | --- | --- | --- | --- | --- | --- | --- | --- | --- |
| O=C1CCC(N2Cc3cc(CN4CCN(c5cccc(Br)c5)CC4)ccc3C2=O)C(=O)N1 (stereo not drawn) [GT-04467, 3-(5-((4-(3-bromophenyl)piperazin-1-yl)methyl)-1-oxoisoindolin-2-yl)piperidine-2,6-dione] | 10 to 50 nM | A (0% ≤ substrate protein remaining % ≤ 80%) | 500 to 1000 nM | 10 to 50 nM | 5 to 10 nM | A (0% ≤ substrate protein remaining % ≤ 80%) | 10 to 50 nM | A (0% ≤ substrate protein remaining % ≤ 80%) | 1 to 5 nM | 10 to 50 nM | A (0% ≤ substrate protein remaining % ≤ 80%) | 1 to 5 nM | A (0% ≤ substrate protein remaining % ≤ 80%) | 1 to 5 nM | 10 to 50 nM | A (0% ≤ substrate protein remaining % ≤ 80%) | 1 to 5 nM | 1 to 5 nM | – |
| O=C1CCC(N2Cc3cc(CN4CCC(c5cccc(Br)c5)CC4)ccc3C2=O)C(=O)N1 (stereo not drawn) [GT-04466, 3-(5-((4-(3-bromophenyl)piperidin-1-yl)methyl)-1-oxoisoindolin-2-yl)piperidine-2,6-dione] | 10 to 50 nM | A (0% ≤ substrate protein remaining % ≤ 80%) | 500 to 1000 nM | 50 to 100 nM | 10 to 50 nM | A (0% ≤ substrate protein remaining % ≤ 80%) | 10 to 50 nM | A (0% ≤ substrate protein remaining % ≤ 80%) | 1 to 5 nM | 10 to 50 nM | A (0% ≤ substrate protein remaining % ≤ 80%) | 1 to 5 nM | A (0% ≤ substrate protein remaining % ≤ 80%) | 1 to 5 nM | 50 to 100 nM | A (0% ≤ substrate protein remaining % ≤ 80%) | 5 to 10 nM | 1 to 5 nM | – |
| Cc1cccc(N2CCN(Cc3ccc4c(c3)CN(C3CCC(=O)NC3=O)C4=O)CC2)c1 (stereo not drawn) [GT-04462, 3-(1-oxo-5-((4-(m-tolyl)piperazin-1-yl)methyl)isoindolin-2-yl)piperidine-2,6-dione] | 10 to 50 nM | A (0% ≤ substrate protein remaining % ≤ 80%) | 500 to 1000 nM | 10 to 50 nM | 5 to 10 nM | A (0% ≤ substrate protein remaining % ≤ 80%) | 10 to 50 nM | A (0% ≤ substrate protein remaining % ≤ 80%) | 1 to 5 nM | 10 to 50 nM | A (0% ≤ substrate protein remaining % ≤ 80%) | 10 to 50 nM | A (0% ≤ substrate protein remaining % ≤ 80%) | 1 to 5 nM | 10 to 50 nM | A (0% ≤ substrate protein remaining % ≤ 80%) | 10 to 50 nM | 1 to 5 nM | – |
| O=C1CCC(N2Cc3cc(CN4CCN(c5cc(Cl)ccc5Cl)CC4)ccc3C2=O)C(=O)N1 (stereo not drawn) [GT-04487, 3-(5-((4-(2,5-dichlorophenyl)piperazin-1-yl)methyl)-1-oxoisoindolin-2-yl)piperidine-2,6-dione] | 100 to 500 nM | B (80%< substrate protein remaining %≤ 100%) | 500 to 1000 nM | 100 to 500 nM | 10 to 50 nM | A (0% ≤ substrate protein remaining % ≤ 80%) | 100 to 500 nM | A (0% ≤ substrate protein remaining % ≤ 80%) | 10 to 50 nM | 50 to 100 nM | A (0% ≤ substrate protein remaining % ≤ 80%) | 5 to 10 nM | B (80%< substrate protein remaining %≤ 100%) | 5 to 10 nM | 50 to 100 nM | B (80%< substrate protein remaining %≤ 100%) | 10 to 50 nM | 5 to 10 nM | – |
| O=C1CCC(N2Cc3cc(CN4CCN(c5ccc(Br)cc5)CC4)ccc3C2=O)C(=O)N1 (stereo not drawn) | 100 to 500 nM | B (80%< substrate protein remaining %≤ 100%) | – | 100 to 500 nM | 10 to 50 nM | A (0% ≤ substrate protein remaining % ≤ 80%) | 100 to 500 nM | A (0% ≤ substrate protein remaining % ≤ 80%) | 5 to 10 nM | 100 to 500 nM | B (80%< substrate protein remaining %≤ 100%) | 1 to 5 nM | B (80%< substrate protein remaining %≤ 100%) | 5 to 10 nM | 100 to 500 nM | B (80%< substrate protein remaining %≤ 100%) | 10 to 50 nM | 5 to 10 nM | 500 to 1000 nM |
| O=C1CCC(N2Cc3cc(CN4CC=C(c5cccs5)CC4)ccc3C2=O)C(=O)N1 (stereo not drawn) [GT-04494, 3-(1-oxo-5-((4-(thiophen-2-yl)-3,6-dihydropyridin-1(2H)-yl)methyl)isoindolin-2-yl)piperidine-2,6-dione] | 10 to 50 nM | A (0% ≤ substrate protein remaining % ≤ 80%) | < 500 nM | 5 to 10 nM | 1 to 5 nM | A (0% ≤ substrate protein remaining % ≤ 80%) | 5 to 10 nM | A (0% ≤ substrate protein remaining % ≤ 80%) | < 1 nM | 10 to 50 nM | A (0% ≤ substrate protein remaining % ≤ 80%) | < 1 nM | B (80%< substrate protein remaining %≤ 100%) | 1 to 5 nM | 10 to 50 nM | B (80%< substrate protein remaining %≤ 100%) | 1 to 5 nM | 1 to 5 nM | – |
